We go through 61 sequences from the OligoGym collection.

The data set deals with HSD17B13. To be noted: ASO, HepaRG.

After the bases stand the sugars from the 5' end (letter, count) and the backbone: PS all phosphorothioate, else s phosphorothioate and o phosphodiester by linkage. Methylation of C is not given here. e = 2'-O-(2-methoxyethyl) (MOE); k = constrained ethyl (cEt); d = 2'-deoxy (DNA); m = 2'-O-methyl

Turning to GAATATATACTAGGAT (sugars k3 d10 k3, PS), the target mRNA inhibition (1 µM) was 5%. For the setting “1 µM”, GAATCCAGATCTGCCC (sugars k3 d10 k3, PS) displayed a target mRNA inhibition of 29%. Same read-out and setting: next, GAATCCATTCTATGCA (sugars k3 d10 k3, PS): 47%; “GAATGCTACTTGAACA (sugars k3 d1 m1 d8 k3, PS)”: 48%. Same read-out and setting: next, GAATGTAAAGGCTGGG (sugars k3 d10 k3, PS): 42%; GACAACCCTTAACAAA (sugars k3 d10 k3, PS): 24%.

Take GACAACTGATGTCCAG (sugars k3 d10 k3, PS): the target mRNA inhibition (1 µM) worked out at 12%. GACAATGGTTGATAGT (sugars k3 d10 k3, PS) showed a target mRNA inhibition (1 µM) of 67%. On to GACAGGTAATTAATCT (sugars k3 d10 k3, PS), for which the target mRNA inhibition (1 µM) stood at 60%. Same read-out and setting: next, GACATAACTACTTCAG (sugars k3 d10 k3, PS): 66%. For the setting “1 µM”, GACATAGACATGTGTT (sugars k3 d10 k3, PS) showed a target mRNA inhibition of 26%. “GACATGAGGTTTTGAT (sugars k3 d9 k3 e1, PS)”: the target mRNA inhibition (1 µM) was 55%. Still for that read-out and setting: for GACCAATATAATCCAA (sugars k3 d10 k3, PS) the value was 34%. Sequence GACTAATGCAAGATTT (sugars k3 d10 k3, PS) had a target mRNA inhibition (1 µM) of 55%.

In turn, GACTTTGAGACTCTTG (sugars k3 d10 k3, PS) returned a target mRNA inhibition (1 µM) of 65%. On to GACTTTTGTTTGTAGC (sugars k3 d10 k3, PS), for which the target mRNA inhibition (1 µM) worked out at 74%. As for “GAGATAAAGCTGCCTG (sugars kkdddddddddkekek, PS)”, the target mRNA inhibition (1 µM) was 40%. Still for that read-out and setting: next, GAGCATAAGTTACCAG (sugars k3 d10 k3, PS): 61%; GAGCATTCATCAGATG (sugars k3 d10 k3, PS): 64%; GAGGTAAGGAATCCCT (sugars k3 d10 k3, PS): 27%. GAGGTATGTCATACTT (sugars k3 d10 k3, PS) came in with a target mRNA inhibition (1 µM) of 29%. GAGGTTTTGATACCAG (sugars k3 d10 k3, PS) yielded a target mRNA inhibition (1 µM) of 59%. In turn, GAGTAGTGTAAGCTGA (sugars k3 d10 k3, PS) showed a target mRNA inhibition (0.02 µM) of 12%; a target mRNA inhibition (0.078 µM) of 12%; a target mRNA inhibition (0.313 µM) of 51%; a target mRNA inhibition (1 µM) of 80%; a target mRNA inhibition (1.25 µM) of 69%; a target mRNA inhibition (5 µM) of 92%. “GAGTCGGTCACCTTTC (sugars k3 d9 k3 e1, PS)” showed a target mRNA inhibition (0.02 µM) of 0%; a target mRNA inhibition (0.078 µM) of 0%; a target mRNA inhibition (0.313 µM) of 0%; a target mRNA inhibition (1 µM) of 74%; a target mRNA inhibition (1.25 µM) of 51%; a target mRNA inhibition (5 µM) of 76%. For the sequence GAGTCGGTCACCTTTC (sugars k3 d10 k3, PS), the target mRNA inhibition was 0% (0.02 µM); 30% (0.078 µM); 55% (0.313 µM); 82% (1 µM); 82% (1.25 µM); 82% (5 µM). In turn, “GAGTGCATCTTAAGAT (sugars k3 d9 k3 e1, PS)” came in with a target mRNA inhibition (1 µM) of 34%. “GAGTGCATCTTAAGAT (sugars kkdddddddddkekek, PS)” had a target mRNA inhibition (1 µM) of 27%. GAGTTAGGGAGCCAGC (sugars k3 d10 k3, PS) returned a target mRNA inhibition (1 µM) of 39%. In the case of GAGTTATACAGAAGAC (sugars k3 d10 k3, PS), the target mRNA inhibition (1 µM) turned out to be 61%. In turn, “GAGTTGCACCGTTTTG (sugars kkdddddddddkekek, PS)” displayed a target mRNA inhibition (1 µM) of 61%. On the same count and under the same terms, for GATAAAGCTGCCTGCT (sugars k3 d10 k3, PS) the value was 42%; for GATACCCAGGTTGCTT (sugars k3 d10 k3, PS), 53%; for GATACTGGTGGACAAG (sugars k3 d10 k3, PS), 13%. GATACTTACCAATATG (sugars k3 d10 k3, PS) had a target mRNA inhibition (1 µM) of 22%. In turn, GATATGAGTAAAGATC (sugars k3 d10 k3, PS) showed a target mRNA inhibition (1 µM) of 23%.

In turn, GATATTCTGTGGCATG (sugars k3 d10 k3, PS) gave a target mRNA inhibition (1 µM) of 46%.

Sequence GATATTGATATACGAT (sugars k3 d10 k3, PS) registered a target mRNA inhibition (1 µM) of 2%.

Take GATATTGTTTAGCTGA (sugars k3 d10 k3, PS): the target mRNA inhibition (1 µM) was 59%. In the case of GATCCATATTCCCTGA (sugars k3 d10 k3, PS), the target mRNA inhibition turned out to be 0% (0.02 µM); 0% (0.078 µM); 21% (0.313 µM); 74% (1 µM); 40% (1.25 µM); 60% (5 µM).

As for GATCGGCTGGATATAC (sugars k3 d10 k3, PS), where the note is “1 µM”, the target mRNA inhibition amounted to 7%. Still for that read-out and setting: for “GATCTCTTAGCTGTGC (sugars k3 d9 k3 e1, PS)” the value was 70%; for “GATCUCTTAGCTGTGC (sugars k3 d1 m1 d8 k3, PS)”, 65%; for GATGATTCTGACTCAT (sugars k3 d10 k3, PS), 55%. Still for that read-out and setting: next, GATGTGGCCATGATTT (sugars k3 d10 k3, PS): 9%; GATTACCCCTGGCTTT (sugars k3 d10 k3, PS): 31%; “GATTAGTCTTGATGTA (sugars k3 d1 m1 d8 k3, PS)”: 45%. As for GATTAGTTAACCTTTT (sugars k3 d10 k3, PS), under “1 µM”, the target mRNA inhibition turned out to be 58%. For GATTATTATGTGATTG (sugars k3 d10 k3, PS), the target mRNA inhibition (1 µM) amounted to 39%. For the setting “1 µM”, GATTGAATTCACTATC (sugars k3 d10 k3, PS) had a target mRNA inhibition of 0%. In the case of “GATTGGAATGCTACTT (sugars k3 d1 m1 d8 k3, PS)”, the target mRNA inhibition (1 µM) worked out at 48%. Under “1 µM”, GATTTAAAATAGAGTC (sugars k3 d10 k3, PS) displayed a target mRNA inhibition of 46%. In turn, GATTTCTAGGATGATG (sugars k3 d10 k3, PS) registered a target mRNA inhibition (1 µM) of 57%. With GCAAAAGGAGCCAGTT (sugars k3 d10 k3, PS), for the setting “1 µM”, the target mRNA inhibition worked out at 57%. For the setting “1 µM”, GCAAAGTTAATAGGAC (sugars k3 d10 k3, PS) displayed a target mRNA inhibition of 52%. For GCAAAGTTTGGGCAGA (sugars k3 d10 k3, PS), the target mRNA inhibition (1 µM) turned out to be 50%.

Turning to GCAAATACAGCAGTAC (sugars k3 d10 k3, PS), for the setting “1 µM”, the target mRNA inhibition was 56%. As to “GCAAGCCAACAGAGAG (sugars k3 d1 m1 d8 k3, PS)”, for the setting “1 µM”, the target mRNA inhibition was found to be 26%. Regarding GCAATAGTACTATAGT (sugars k3 d10 k3, PS), the target mRNA inhibition (1 µM) is 39%.

Under “1 µM”, GCACATCATGTTTTGC (sugars k3 d10 k3, PS) returned a target mRNA inhibition of 44%.

For the setting “1 µM”, “GCAGAAATTCACCTTG (sugars k3 d1 m1 d8 k3, PS)” gave a target mRNA inhibition of 54%. Still for that read-out and setting: next, “GCAGAAATTCACCTTG (sugars k3 d9 k3 e1, PS)”: 62%.
